This is an account of results in patent US5316919A, “Method of producing 2 KD to 10 KD peptides having no L-methionine residue” (priority 1992, dated 1994).

Where no end group is shown, it is not given here.

The test system of the experiment is male ICR mice. As to the kind of experiment: Effects on the blood pressure (caudal vein blood pressure, noninvasive sphygmomanometer) after intravenous injection. As to conditions: 40 μg/kg by injection into the caudal vein, male ICR mice of 5 weeks of age. It is filed as in vivo. On the procedure:
Two of the compounds of the invention were each administered to male ICR mice of 5 weeks of age by injection into the caudal vein at a dose of 40 μg/kg. […]
In addition, the activity was of long duration. The peptides of the invention have therapeutic utility.

For “H-HSDAVFTDNYTRLRKQLAVKKYLNSILNGPEA-OH [Peptide of Reference Example 1, H-His-Ser-Asp-Ala-Val-Phe-Thr-Asp-Asn-Tyr-Thr-Arg-Leu-Arg-Lys-Gln-Leu-Ala- Val-Lys-Lys-Tyr-Leu-Asn-Ser-Ile-Leu-Asn-Gly-Pro-Glu-Ala-OH]”, the “caudal vein blood pressure relative to physiological saline taken as 100%” value by setting is: (5 min after administration) 71.1%; (10 min after administration) 66.4%; (15 min after administration) 74.9%; (20 min after administration) 77.9%.

Consider “vasoactive intestinal polypeptide (HSDAVFTDNYTRLRKQMAVKKYLNSILN; ends and bridges not checked; UniProt P01282 125-152, looked up) [Naturally occurring VIP, reference compound]”, for which the “caudal vein blood pressure relative to physiological saline taken as 100%” value reads like this: (5 min after administration) 83.3%; (10 min after administration) 97.2%; (15 min after administration) 95.9%; (20 min after administration) 102.8%.

Take “H-HSDAVFTDNYTRLRKQLAVKKYLNSILNGP-OH [Peptide of Reference Example 3, H-His-Ser-Asp-Ala-Val-Phe-Thr-Asp-Asn-Tyr-Thr-Arg-Leu-Arg-Lys-Gln-Leu-Ala- Val-Lys-Lys-Tyr-Leu-Asn-Ser-Ile-Leu-Asn-Gly-Pro-OH]”: the “caudal vein blood pressure relative to physiological saline taken as 100%” value is listed as 58.9% (5 min after administration), 74.1% (10 min after administration), 94.3% (15 min after administration) and 105.5% (20 min after administration).
